The values below come from US11685747B2, “Compounds that inhibit MCL-1 protein” (AMGEN INC., priority 2014, dated 2023).

For one assay, the system named is OPM-2. Nature of the assay: Cell viability assay (OPM-2 10 FBS, CellTiter-Glo). Type of assay: cell-based, human. The note with it: OPM-2 cells. As for the experimental part: Cell Viability Assay (OPM-2 10 FBS)
Cells were seeded into 384-well plates at 3000 cells/well density in complete growth medium containing 10% FBS, and incubated for 16 h with serially diluted test compounds in a 37° C. incubator with 5% CO2. Cell viability was tested using CellTiter-Glo® assay (Promega, Madison, Wis.) according to the manufacturer recommendations. Luminescence was determined using an EnVision® Multilabel plate reader 25 min after the addition of detection reagent. IC50 values were then calculated with Xlfit using a logistical 4-parameter fit model in GraphPad Prism (GraphPad Software, San Diego, Calif.) or in Genedata Screener® (Genedata, Basel, Switzerland).
Background: Cellular ATP, detected with luciferase, serves as a proxy for viable cell number.

Assay [1] deals with T1, Mcl-1/Bak protein-protein interactions (Homo sapiens, UniProt Q07820).
T1 construct: expressed in transfected cells; host or cells: HEK 293 M cells, transient transfection
T1 sequence (Q07820 whole entry): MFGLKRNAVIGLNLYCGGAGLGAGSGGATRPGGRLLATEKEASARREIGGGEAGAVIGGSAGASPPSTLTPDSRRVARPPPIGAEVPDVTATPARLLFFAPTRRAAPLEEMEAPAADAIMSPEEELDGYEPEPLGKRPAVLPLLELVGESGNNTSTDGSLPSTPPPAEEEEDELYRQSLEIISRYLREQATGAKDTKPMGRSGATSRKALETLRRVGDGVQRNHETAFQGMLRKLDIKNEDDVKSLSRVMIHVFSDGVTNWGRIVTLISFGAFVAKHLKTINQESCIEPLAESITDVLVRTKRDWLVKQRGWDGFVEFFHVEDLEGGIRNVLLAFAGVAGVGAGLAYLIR
As to the kind of experiment: Cell-based split luciferase complementation assay. The note with it: HEK 293 M cells, serum-free, 4 h. As for the experimental part: Cell-Based Assay (Split Luciferase)
A split luciferase complementation assay was developed to determine the inhibition of Mcl-1/Bak protein-protein interactions in cells. […] Transient transfection was performed using Lipofectamine® LTX/Plus™ reagent (Life Technologies, Grand Island, N.Y.). 24 h after transfection, cells were collected using non-enzyme based cell dissociation buffer StemPro® Accutase® (Life Technologies), and resuspended in serum-free Opti-MEM® (Life Technologies). Cells were then seeded into assay plates with serially diluted test compounds in 0.3% DMSO at density of a 5000 cells/well. Cells were then incubated for 4 h at 37° C. in a cell culture incubator supplement with 5% CO2. Test plates were equilibrated to room temperate for 30 min before addition of 30 μL Steady-Glo® Luciferase assay reagent (Promega, Madison, Wis.) into each test well. Luminescence was determined using an EnVision® Multilabel plate reader 25 min after the addition of detection reagent. IC50 values were then calculated with Xlfit using a logistical 4-parameter fit model in GraphPad Prism (GraphPad Software, San Diego, Calif.) or in Genedata Screener® (Genedata, Basel, Switzerland).

A further assay concerns the target T2, recombinant human Mcl-1 (Homo sapiens, UniProt Q07820).
T2 construct: C-terminally 6×His tagged Mcl-1 containing residues 171-327; made in house
Nature of the assay: Cell free Mcl-1:Bim affinity assay (Mcl-1 HTRF, TR-FRET). Type of assay: binding. The note with it: inhibition of Mcl-1/Bim interaction. As for the experimental part: Cell Free Mcl-1:Bim Affinity Assay (Mcl-1 HTRF)
The inhibition of the Mcl-1/Bim interaction was measured using a time-resolved fluorescence resonance energy transfer (TR-FRET) assay. […] A biotinylated peptide derived from human Bim (residues 51-76) was purchased from CPC Scientific (San Jose, Calif.). The TR-FRET assay was conducted in a 384-well white OptiPlate™ (PerkinElmer, Waltham, Mass.) in a total volume of 40 μL. […] The reaction plates were further incubated overnight and then were read on an Envision® multimode reader (PerkinElmer). […] The IC50 values of test compounds were determined from duplicate data by analyzing competition curves using a four-parameter sigmoidal model in GraphPad Prism (GraphPad Software, San Diego, Calif.) or in Genedata Screener® (Genedata, Basel, Switzerland).

T2 sequence (Q07820 171-327): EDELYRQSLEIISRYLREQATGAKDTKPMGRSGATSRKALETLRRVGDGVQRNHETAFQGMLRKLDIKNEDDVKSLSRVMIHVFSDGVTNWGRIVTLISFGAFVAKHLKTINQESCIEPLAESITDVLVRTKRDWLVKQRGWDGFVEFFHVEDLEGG

For `CCC[C@@H]1[C@@H](C)C/C=C/[C@H](O)[C@@H]2CC[C@H]2CN2C[C@@]3(CCCc4cc(Cl)ccc43)COc3ccc(cc32)C(=O)NS1(=O)=O` [Example 70, (1S,3′R,6′R,7′S,8′E,11′S,12′R)-6-Chloro-7′-Hydroxy-11′-Methyl-12′-Propyl-3,4-Dihydro-2H,15′H-Spiro[Naphthalene-1,22′-[20]Oxa[13]Thia[1,14] Diazatetracyclo [14.7.2.0^3,6.0^19,24]Pentacosa [8,16,18,24]Tetraen]-15′-One 13′,13′-Dioxide], the IC50 is 238 nM in the assay on OPM-2 (Homo sapiens, OPM-2, 16 h); 34.7 nM in assay [1]; 0.638 nM on recombinant human Mcl-1.

In the case of `C[C@@H]1C/C=C/[C@H](O)[C@@H]2CC[C@H]2CN2C[C@@]3(CCCc4cc(Cl)ccc43)COc3ccc(cc32)C(=O)NS(=O)(=O)[C@H]1CC1CCC1` (single isomer, unassigned) [Example 63], the IC50 with OPM-2 (16 h) was 183 nM; in assay [1], 30.7 nM; at recombinant human Mcl-1, 0.423 nM.

For the compound `CC1(C)CC/C=C/[C@H](O)[C@@H]2CC[C@H]2CN2C[C@@]3(CCCc4cc(Cl)ccc43)COc3ccc(cc32)C(=O)NS1(=O)=O` (single isomer, unassigned) [Example 40], the IC50 in the assay with OPM-2 (Homo sapiens, OPM-2, 16 h) turned out to be 7300 nM; in assay [1], 297 nM; on recombinant human Mcl-1 it was 7.68 nM.

With `CC[C@@H]1CCCC[C@H](O)[C@@H]2CC[C@H]2CN2C[C@@]3(CCCc4ccccc43)COc3ccc(cc32)C(=O)NS1(=O)=O` [Example 22, (1S,3′R,6′R,7′S,12′R)-12′-Ethyl-7′-Hydroxy-3,4-Dihydro-2H,15′H-Spiro[Naphthalene-1,22′-[20]Oxa[13]Thia[1,14]Diazatetracyclo[14.7.2.0^3,6.0^19,24]Pentacos A[16,18,24]Trien]-15′-One 13′,13′-Dioxide], the IC50 with OPM-2 (Homo sapiens, OPM-2, 16 h) amounted to 1250 nM; in assay [1], 117 nM; at recombinant human Mcl-1 it was 0.704 nM.

Take `C[C@H]1C/C=C/[C@H](O)[C@@H]2CC[C@H]2CN2C[C@@]3(CCCc4cc(Cl)ccc43)COc3ccc(cc32)C(=O)NS(=O)(=O)[C@@H]1CC1CC1` (single isomer, unassigned) [Example 58]: the IC50 in the assay with OPM-2 (16 h) is 496 nM; in assay [1] it was 48.2 nM; on recombinant human Mcl-1, 0.917 nM.

For the compound `C[C@@H]1C/C=C/[C@H](O)[C@@H]2CC[C@H]2CN2C[C@@]3(CCCc4cc(Cl)ccc43)COc3ccc(cc32)C(=O)NS(=O)(=O)C1` (single isomer, unassigned) [Example 30], the IC50 in the assay with OPM-2 (16 h) amounted to 161 nM; in assay [1], 26.5 nM; on recombinant human Mcl-1 it was 0.38 nM.

`CO[C@H]1/C=C/C[C@@H](C)[C@@H](C(C)C)S(=O)(=O)NC(=O)c2ccc3c(c2)N(C[C@@H]2CC[C@H]21)C[C@@]1(CCCc2cc(Cl)ccc21)CO3` [Example 53, (1S,3′R,6′R,7′S,8′E,11′R,12′R)-6-Chloro-7′-Methoxy-11′-Methyl-12′-(1-Methylethyl)-3,4-Dihydro-2H,15′H-Spiro[Naphthalene-1,22′-[20]Oxa[13]Thia[1,14]Diazatetracyclo[14.7.2.0^3,6.0^19,24]Pentacosa[8,16,18,24]Tetraen]-15′-One 13′,13′-Dioxide]: the IC50 with OPM-2 (Homo sapiens, OPM-2, 16 h) is 328 nM; in assay [1] it was 51.4 nM; at recombinant human Mcl-1, 1.39 nM.

Consider `CC(C)[C@@H]1[C@H](C)C/C=C/[C@H](O)[C@@H]2CC[C@H]2CN2C[C@@]3(CCCc4cc(Cl)ccc43)COc3ccc(cc32)C(=O)NS1(=O)=O` (single isomer, unassigned) [Example 51], for which the IC50 was 14400 nM in the assay on OPM-2 (16 h), 792 nM in assay [1] and 24.3 nM at recombinant human Mcl-1.

For the compound `C[C@@H]1CCC[C@H](O)[C@@H]2CC[C@H]2CN2C[C@@]3(CCCc4cc(Cl)ccc43)COc3ccc(cc32)C(=O)NS(=O)(=O)[C@@H]1C` (single isomer, unassigned) [Example 35], the IC50 was 723 nM in the assay on OPM-2 (16 h), 84.3 nM in assay [1] and 0.955 nM on recombinant human Mcl-1.

The IC50 is the concentration needed to halve the response being measured.
